# Laboratory results published in patent US9023821B2, “Use of MicroRNA for treating diseases associated with a dysfunction of the cilia in multiciliated epithelial cells” (Centre National de la Recherche Scientifique, priority 2009, dated 2015).
# What was measured:
# [1] = test system: human airway epithelial cells (HAECs); experiment: High-throughput sequencing (HTS) of miRNAs at four stages of differentiation of HAECs; details: for Modulation (ratio of the level of intensity of expression in log2 in two stages of differentiation) measured by high-throughput sequencing, D7 − D0 / Modulation (ratio of the level of intensity of expression in log2 in two stages of differentiation) measured by high-throughput sequencing, FC − D7 / Modulation (ratio of the level of intensity of expression in log2 in two stages of differentiation) measured by high-throughput sequencing, WD − D0 / Modulation (ratio of the level of intensity of expression in log2 in two stages of differentiation) measured by high-throughput sequencing, WD − FC / Level of intensity of expression in log2 measured by high-throughput sequencing, D0 / Level of intensity of expression in log2 measured by high-throughput sequencing, D7 / Level of intensity of expression in log2 measured by high-throughput sequencing, FC / Level of intensity of expression in log2 measured by high-throughput sequencing, WD: Table VI; for Modulation (ratio of the level of intensity of expression in log2 in two stages of differentiation), D7 − D0 / Modulation (ratio of the level of intensity of expression in log2 in two stages of differentiation), FC − D7 / Modulation (ratio of the level of intensity of expression in log2 in two stages of differentiation), WD − FC / Abundance (%), D0 / Abundance (%), D7 / Abundance (%), FC / Abundance (%), WD: HTS; for Abundance (%), D0: ALI-D0; for Abundance (%), D7: ALI-D7; for Abundance (%), FC: ALI-FC; for Abundance (%), WD: ALI-WD; for Level of intensity of expression in log2 At the differentiated stage (WD) measured in HTS: healthy human airway epithelial tissue; for Level of intensity of expression in log2 measured by high-throughput sequencing, D0: stage D0; for Level of intensity of expression in log2 measured by high-throughput sequencing, D7: stage D7; for Level of intensity of expression in log2 measured by high-throughput sequencing, FC: stage FC; for Level of intensity of expression in log2 At the differentiated stage (WD) measured in HTS / Level of intensity of expression in log2 measured by high-throughput sequencing, WD: stage WD
# Method in brief: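 Reads per 5p and 3p strand scaled to 10^6 sequences, then to percentage abundance; linear model plus empirical Bayes normalization. Retained miRNAs exceeded 1% of total in at least one condition, with |Log2 Ratio| below 0.5 and adjusted P-value below 0.05.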
# [2] = test system: human airway epithelial cells (HAECs); experiment: Agilent miRNA chips, miRNA expression at four stages of differentiation of HAECs; details: for Modulation (ratio of the level of intensity of expression in log2 in two stages of differentiation) measured with the Agilent chips, D7 − D0 / Modulation (ratio of the level of intensity of expression in log2 in two stages of differentiation) measured with the Agilent chips, FC − D7 / Modulation (ratio of the level of intensity of expression in log2 in two stages of differentiation) measured with the Agilent chips, WD − D0 / Modulation (ratio of the level of intensity of expression in log2 in two stages of differentiation) measured with the Agilent chips, WD − FC / Level of intensity of expression in log2 measured with the Agilent chips, D0 / Level of intensity of expression in log2 measured with the Agilent chips, D7 / Level of intensity of expression in log2 measured with the Agilent chips, FC / Level of intensity of expression in log2 measured with the Agilent chips, WD: Table VI; for Level of intensity of expression in log2 measured with the Agilent chips, D0: stage D0; for Level of intensity of expression in log2 measured with the Agilent chips, D7: stage D7; for Level of intensity of expression in log2 measured with the Agilent chips, FC: stage FC; for Level of intensity of expression in log2 measured with the Agilent chips, WD: stage WD; for Modulation (ratio of the level of intensity of expression in log2 at two stages of differentiation), FC − D7 / Modulation (ratio of the level of intensity of expression in log2 at two stages of differentiation), WD − FC: Agilent miRNA chips, Table V
# Method in brief: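 Patient RNA samples, the same ones analysed by high-throughput sequencing, were first labelled, then hybridized onto arrays carrying 866 human and 89 human viral miRNAs (miRBase v.12.0), following the supplied labelling and hybridization protocol.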
# [3] = test system: basal cells and pyramidal cells of the airway epithelium; experiment: miRNA expression in sorted basal cells versus pyramidal cells (ciliated + secretory), HTS and Agilent chips; set-up: species or system human; details: for Modulation of expression of the miRNAs in pyramidal cells (323(−)) relative to basal cells 323(+): HTS and Agilent chips; for Intensity of the level of expression in log2 in pyramidal cells (323(−)): pyramidal cells (ciliated + secretory)
# Method in brief: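 Nasal polyp or concha epithelial cells from 3 donors were stained with CD151-PE and anti-tissue factor-FITC for 20 min at 4° C, with DAPI excluding damaged cells. CD151+/TF+ basal and CD151−/TF− ciliated/secretory cells were FACS-sorted; total RNA miRNA profiles came from Agilent chips or high-throughput sequencing.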
Substance,"Modulation (ratio of the level of intensity of expression in log2 in two stages of differentiation) measured by high-throughput sequencing, D7 − D0 [1] [log2]","Modulation (ratio of the level of intensity of expression in log2 in two stages of differentiation) measured by high-throughput sequencing, FC − D7 [1] [log2]","Modulation (ratio of the level of intensity of expression in log2 in two stages of differentiation) measured by high-throughput sequencing, WD − D0 [1] [log2]","Modulation (ratio of the level of intensity of expression in log2 in two stages of differentiation) measured by high-throughput sequencing, WD − FC [1] [log2]",Level of intensity of expression in log2 At the differentiated stage (WD) measured in HTS [1] [log2],"Level of intensity of expression in log2 measured by high-throughput sequencing, D0 [1] [log2]","Level of intensity of expression in log2 measured by high-throughput sequencing, D7 [1] [log2]","Level of intensity of expression in log2 measured by high-throughput sequencing, FC [1] [log2]","Level of intensity of expression in log2 measured by high-throughput sequencing, WD [1] [log2]","Modulation (ratio of the level of intensity of expression in log2 in two stages of differentiation) measured with the Agilent chips, D7 − D0 [2] [log2]","Modulation (ratio of the level of intensity of expression in log2 in two stages of differentiation) measured with the Agilent chips, FC − D7 [2] [log2]","Modulation (ratio of the level of intensity of expression in log2 in two stages of differentiation) measured with the Agilent chips, WD − D0 [2] [log2]","Modulation (ratio of the level of intensity of expression in log2 in two stages of differentiation) measured with the Agilent chips, WD − FC [2] [log2]","Level of intensity of expression in log2 measured with the Agilent chips, D0 [2] [log2]","Level of intensity of expression in log2 measured with the Agilent chips, D7 [2] [log2]","Level of intensity of expression in log2 measured with the Agilent chips, FC [2] [log2]","Level of intensity of expression in log2 measured with the Agilent chips, WD [2] [log2]",Modulation of expression of the miRNAs in pyramidal cells (323(−)) relative to basal cells 323(+) [3],Intensity of the level of expression in log2 in basal cells (323(+)) [3] [log2],Intensity of the level of expression in log2 in pyramidal cells (323(−)) [3] [log2],further results
"hsa-miR-205: human miRNA, SEQ ID No. 20 (UCCUUCAUUCCACCGGAGUCUG; expressed or natural sequence; listed as Homo sapiens)",0.62,−1.12,−0.06,0.44,15.24,14.61,15.23,14.11,14.55,1.00,−0.72,−0.11,−0.39,13.18,14.18,13.46,13.07,−7.00,12.44,5.44,"Modulation (ratio of the level of intensity of expression in log2 in two stages of differentiation), D7 − D0 [1]: 0.62 log2; Modulation (ratio of the level of intensity of expression in log2 in two stages of differentiation), FC − D7 [1]: −1.12 log2; Modulation (ratio of the level of intensity of expression in log2 in two stages of differentiation), WD − FC [1]: 0.44 log2; Abundance (%), D0 [1]: 5.48%; Abundance (%), D7 [1]: 8.43%; Abundance (%), FC [1]: 3.76%; Abundance (%), WD [1]: 3.87%; cell type in which the miRNA is specifically expressed ([3]; sorted ciliated/pyramidal versus basal cells): more specific to the basal cells"
"hsa-miR-210: human miRNA, SEQ ID No. 22",−0.96,−0.74,−1.80,−0.10,9.29,12.29,11.33,10.60,10.49,0.18,−0.63,−0.56,−0.11,9.08,9.25,8.63,8.52,−2.03,6.60,4.57,"Modulation (ratio of the level of intensity of expression in log2 in two stages of differentiation), D7 − D0 [1]: −0.96 log2; Modulation (ratio of the level of intensity of expression in log2 in two stages of differentiation), FC − D7 [1]: −0.74 log2; Modulation (ratio of the level of intensity of expression in log2 in two stages of differentiation), WD − FC [1]: −0.10 log2; Abundance (%), D0 [1]: 1.10%; Abundance (%), D7 [1]: 0.57%; Abundance (%), FC [1]: 0.33%; Abundance (%), WD [1]: 0.23%"
"hsa-miR-224: human miRNA, SEQ ID No. 24 (CAAGUCACUAGUGGUUCCGUU; expressed or natural sequence; listed as Homo sapiens)",1.52,−0.72,1.63,0.83,14.10,9.59,11.12,10.39,11.22,2.55,−0.87,1.68,0.00,6.84,9.40,8.52,8.52,−2.84,3.65,0.82,"Modulation (ratio of the level of intensity of expression in log2 at two stages of differentiation), FC − D7 [2]: −0.87 log2; Modulation (ratio of the level of intensity of expression in log2 at two stages of differentiation), WD − FC [2]: 0.00 log2"
"hsa-miR-365: human miRNA, SEQ ID No. 41 (UAAUGCCCCUAAAAAUCCUUAU; expressed or natural sequence; listed as Homo sapiens)",−0.39,0.00,−0.39,0.00,2.78,0.41,0.01,0.01,0.01,−0.02,−1.21,−1.18,0.05,8.44,8.41,7.21,7.25,−0.99,4.83,3.84,"Modulation (ratio of the level of intensity of expression in log2 at two stages of differentiation), FC − D7 [2]: −1.21 log2; Modulation (ratio of the level of intensity of expression in log2 at two stages of differentiation), WD − FC [2]: 0.05 log2"
